Reference: publication PMC3961628 (American Journal of Cardiovascular Drugs, 2013)
Where two headings read alike, the source gives them in different places.

Tests used:
[1] = BDC rats, intravenous [14C]apixaban; cited from earlier work
[2] = cited from earlier work
[3] = cited from earlier work; remark: listed apart in the source
[4] = single oral 20-mg radiolabeled dose; bile collected 3–8 h after dose; cited from earlier work
[5] = Safety assessments; format: in vivo, healthy human subjects
[6] = format: in vivo, healthy human subjects; conditions: for AUC(0-t) / AUC(0-inf) / Cmax: geometric mean (% CV); for AUC(0-inf): AUCINF; for Cmax: C max; for half-life: T ½
[7] = Stability of apixaban in human plasma; format: in vitro ADME; conditions: at −20 °C
[8] = BDC dogs, cited from earlier work
[9] = tested on: major uptake transporters; conditions: cited from earlier work
[10] = apixaban 2.5 mg solution released in the ascending colon
[11] = apixaban 2.5 mg solution released in the distal small bowel
[12] = human, plasma, oral, 20 mg, Treatment A: apixaban 20 mg alone, n = 18
[13] = human, plasma, oral, Treatment B: apixaban 20 mg + activated charcoal 2 h after apixaban, n = 14
[14] = human, plasma, oral, Treatment C: apixaban 20 mg + activated charcoal 6 h after apixaban, n = 17

T ½ ([6]; Treatment A: apixaban 20 mg alone, n = 18, mean (SD)): 13.4 (5.1) h
T max ([6]; Treatment C: apixaban 20 mg + activated charcoal 6 h after apixaban, n = 17, median (range)): 2.5 (1.5–4.0) h
Decrease in apixaban exposure (AUCINF) vs apixaban alone ([6]; activated charcoal administered at 2 h post-dose): 50%
Decrease in apixaban exposure (AUCINF) vs apixaban alone ([6]; activated charcoal administered at 6 h post-dose): 28%
Effect of activated charcoal on C max or T max of apixaban ([6]; charcoal at 2 or 6 h post-dose): no effect
Tmax ([6]; human, plasma, oral, 20 mg): 2.5 h
AUC(0-t) [6, 12]: 4080 ng·h/mL
AUC(0-inf) [6, 12]: 4180 ng·h/mL
Cmax [6, 12]: 380 ng/mL
AUC(0-t) ([6]; human, plasma, oral, Treatment B: apixaban 20 mg + activated charcoal 50 g 2 h after apixaban, n = 14): 2010 ng·h/mL
AUC(0-t) ([6]; human, plasma, oral, Treatment C: apixaban 20 mg + activated charcoal 50 g 6 h after apixaban, n = 17): 2950 ng·h/mL
AUC(0-inf) [6, 13]: 2030 ng·h/mL
AUC(0-inf) [6, 14]: 2980 ng·h/mL
Cmax [6, 13]: 366 ng/mL
Cmax [6, 14]: 383 ng/mL
half-life ([6]; human, plasma, oral, Treatment B: apixaban 20 mg + activated charcoal 2 h after apixaban, n = 14, mean (SD)): 5.3 h
half-life ([6]; human, plasma, oral, Treatment C: apixaban 20 mg + activated charcoal 6 h after apixaban, n = 17, mean (SD)): 4.9 h
Time for which mean plasma concentrations were quantifiable ([6]; single oral 20-mg dose without activated charcoal, LLOQ 1 ng/mL): up to 72 h
Stability in human plasma [7]: at least 864 days
SMILES: COc1ccc(-n2nc(C(N)=O)c3c2C(=O)N(c2ccc(N4CCCCC4=O)cc2)CC3)cc1 [apixaban, 1-(4-methoxyphenyl)-7-oxo-6-(4-(2-oxopiperidin-1-yl)phenyl)-4,5,6,7-tetrahydro-1H-pyrazolo[3,4-c]pyridine-3-carboxamide]
Dose found in feces [1]: 20–30 % of the dose
AUC(0–T) lower than with oral administration [2, 10]: 84%
C max lower than with oral administration [2, 10]: 90%
AUC(0–T) lower than with oral administration [2, 11]: approximately 60%
C max lower than with oral administration [2, 11]: approximately 60%
Oral bioavailability ([3]; background statement): approximately 50%
Effect of food and changes in gastric pH on apixaban exposure [3]: no clinically relevant effect
Terminal half-life (T ½) [3]: approximately 12 h
Time to peak plasma concentration (C max) ([3]; oral administration, immediate-release tablet, background statement): approximately 3 h
Biliary excretion, share of total recovered radioactivity [4]: less than 3%
Proportion of subjects reporting adverse events ([5]; apixaban 20 mg alone): 16.7%
Tolerability ([5]; healthy subjects, single 20-mg doses): well tolerated
Dose found in feces ([8]; intravenous [14C]apixaban): 40–50 % of the dose
Effect of activated charcoal on fecal recovery and apparent systemic clearance [8]: increased fecal recovery and apparent systemic clearance
Substrate status for major uptake transporters [9]: not a substrate
